Reference: patent US20250019335A1, “NOVEL QUINIZARIN DERIVATIVE AND PREPARATION METHOD THEREOF” (BENOBIO CO., LTD., priority 2021, published 2025)

What was measured:
BRD2(BD2) = target: T1, BRD2(BD2) (Homo sapiens, UniProt P25440); assay: Binding inhibition ability test for BRD2 protein (AlphaScreen, GST BRD2 / biotinylated acetyl histone H4 peptide); settings: 100 nM GST BRD2, 100 nM biotinylated acetyl histone H4 (Lys5, 8, 12, 16) peptide, Alpha Screen
T1 construct: a mixture of 100 nM GST BRD2 (BD1, BD2, BD1+BD2) and 100 nM biotinylated acetyl histone H4
Description: To confirm a binding inhibitory effect of a quinizarin derivative of the present disclosure on a BRD2 protein among BET proteins, the following experiment was performed.
First, a compound was diluted in 1:5 subdilution in an assay buffer from a 10 mM stock in dimethyl sulfoxide (DMSO) in a white Optiplate.
Then, a mixture of 100 nM GST BRD2 (BD1, BD2, BD1+BD2) and 100 nM biotinylated acetyl histone H4 (Lys5, 8, 12, 16) peptides was added to the diluent, and then each sample was shaking-cultured in the dark at 300 rpm for 30 minutes at room temperature.
Thereafter, signals were measured with a PerkinElmer Envision HTS Multilabel Reader using a PerkinElmer Alpha Screen protocol.

SREBP-1 = assay: Expression of liposynthesis factor SREBP-1 in palmitic acid-treated HepG2 cells (RT-PCR); assay type: cell-based, human; settings: pretreated 1 μM to 10 μM, 100 μM palmitic acid 24 hours
Description: (§1) HepG2 cell lines, human liver epithelial cells, were incubated, pretreated with quinizarin and a substance of Example 2 (BBC0504) at concentrations of 1 μM to 10 μM, and treated with 100 μM palmitic acid (PA) for 24 hours to induce fatty liver at a cellular level. After 24 hours, the expression of lipogenesis-related genes SREBP-1 and FAS in cells in each sample was confirmed using RT-PCR. Each sample was added with a trizol reagent to extract total RNA, and the concentration was confirmed using a spectrophotometer. To synthesize cDNA for each gene, RT-PCR reaction was performed using primers targeting the SREBP-1 and FAS genes. β-actin was used as a control group, and after the reaction was completed, the detected cDNA product was confirmed by electrophoresis on a 1.0% agarose gel.
FIG. 13 illustrates a result of confirming SREBP-1 expression after treating fatty liver-induced cells for each concentration with a quinizarin derivative according to an embodiment of the present disclosure.

FAS = assay: Expression of liposynthesis factor FAS in palmitic acid-treated HepG2 cells (RT-PCR); assay type: cell-based, human; settings: pretreated 1 μM to 10 μM, 100 μM palmitic acid 24 hours
Description: as §1
FIG. 14 illustrates a result of confirming FAS expression after treating fatty liver-induced cells with a quinizarin derivative at each concentration according to an embodiment of the present disclosure.

HepG2 cells = assay: Lipogenesis inhibition in palmitic acid-induced fatty liver HepG2 cells (Oil red O staining); assay type: cell-based, human; settings: pretreated 1 μM to 10 μM, 100 μM palmitic acid 24 hours
Description: HepG2 cell lines, human liver epithelial cells, were incubated, pretreated with quinizarin and a substance of Example 2 (BBC0504) at concentrations of 1 μM to 10 μM, and treated with 100 μM palmitic acid (PA) for 24 hours to induce fatty liver at a cellular level. After 24 hours, the cells in each sample were immobilized for 1 hour with a phosphate-buffered salt solution containing 7% formaldehyde, washed with PBS, and stained with a 99% isopropanol solution containing 1% Oil red O for 10 minutes. The differentiation degree of adipocytes was measured by dissolving the stained Oil red O in isopropanol and measuring the absorbance at 510 nm.
Referring to FIG. 11, HepG2 cells, which are human liver epithelial cells, were treated with palmitic acid to induce fatty liver, and the ability to inhibit lipogenesis was confirmed at each concentration in Example 2.

T1 sequence (P25440 344-453 limits assumed, species assumed): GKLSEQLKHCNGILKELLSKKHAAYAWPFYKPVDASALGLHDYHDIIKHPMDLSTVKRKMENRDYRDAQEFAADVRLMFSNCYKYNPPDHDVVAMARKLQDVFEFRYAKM

Row | Structure (SMILES) | IC50 (BRD2(BD2)) [nM] | SREBP-1 gene expression (SREBP-1) | FAS gene expression (FAS) | lipogenesis amount (Oil red O absorbance at 510 nm) (HepG2 cells)
1 | O=C1c2ccccc2C(=O)c2c(O)cc(-c3ccc(O)c(O)c3)cc21 [Example 3] | 1750 |  |  | 
2 | O=C1c2ccccc2C(=O)c2c(OC3COC3)ccc(O)c21 [Example 4] | 3120 |  |  | 

The next lines start with results.

Row | IC50 (BRD2(BD2)) [nM] | Structure (SMILES) | SREBP-1 gene expression (SREBP-1) | FAS gene expression (FAS) | lipogenesis amount (Oil red O absorbance at 510 nm) (HepG2 cells)
3 | 1740 | O=C1c2ccccc2C(=O)c2c(O)c(-c3ccc(O)c(O)c3)cc(O)c21 [Example 1] |  |  | 
4 | 4440 | O=C1c2ccc(-c3ccc(O)c(O)c3)cc2C(=O)c2c(O)ccc(O)c21 [Example 2] | reduced depending on a concentration | reduced depending on a concentration | reduced in a concentration-dependent manner
5 | 2730 | O=C1c2ccccc2C(=O)c2c3c(cc(O)c21)OCCO3 [Example 5] |  |  | 
